Drawing on ChEMBL document CHEMBL5696442, “Discovery of type II inhibitors of TGFβ-activated kinase 1 (TAK1) and mitogen-activated protein kinase kinase kinase kinase 2 (MAP4K2)” (J Med Chem, 2015), this text covers inhibition and residual activity for three compounds.

Active and inactive are the calls of the source. No cut-off for these calls is given here.

As a reminder, the inhibition is the change of the read-out against control, counted positive when it falls. The residual activity is what remains of the control signal, in per cent.

Experiment [1] has as its target Phosphatidylinositol 4,5-bisphosphate 3-kinase catalytic subunit beta isoform (Homo sapiens) (UniProt P42338). Put plainly: Inhibition of PIK3CB ATP labeling site harbouring VFGEDSVGVIFKNGDDLRQDMLTLQMLR in human Huh-7 cells at 1 uM by KiNativ Profiling analysis relative to control. In kind it is cell-based.
Experiment [2] has as its target T1, Serine/threonine-protein kinase Nek9 (Homo sapiens) (UniProt Q8TD19).
T1 sequence (whole entry): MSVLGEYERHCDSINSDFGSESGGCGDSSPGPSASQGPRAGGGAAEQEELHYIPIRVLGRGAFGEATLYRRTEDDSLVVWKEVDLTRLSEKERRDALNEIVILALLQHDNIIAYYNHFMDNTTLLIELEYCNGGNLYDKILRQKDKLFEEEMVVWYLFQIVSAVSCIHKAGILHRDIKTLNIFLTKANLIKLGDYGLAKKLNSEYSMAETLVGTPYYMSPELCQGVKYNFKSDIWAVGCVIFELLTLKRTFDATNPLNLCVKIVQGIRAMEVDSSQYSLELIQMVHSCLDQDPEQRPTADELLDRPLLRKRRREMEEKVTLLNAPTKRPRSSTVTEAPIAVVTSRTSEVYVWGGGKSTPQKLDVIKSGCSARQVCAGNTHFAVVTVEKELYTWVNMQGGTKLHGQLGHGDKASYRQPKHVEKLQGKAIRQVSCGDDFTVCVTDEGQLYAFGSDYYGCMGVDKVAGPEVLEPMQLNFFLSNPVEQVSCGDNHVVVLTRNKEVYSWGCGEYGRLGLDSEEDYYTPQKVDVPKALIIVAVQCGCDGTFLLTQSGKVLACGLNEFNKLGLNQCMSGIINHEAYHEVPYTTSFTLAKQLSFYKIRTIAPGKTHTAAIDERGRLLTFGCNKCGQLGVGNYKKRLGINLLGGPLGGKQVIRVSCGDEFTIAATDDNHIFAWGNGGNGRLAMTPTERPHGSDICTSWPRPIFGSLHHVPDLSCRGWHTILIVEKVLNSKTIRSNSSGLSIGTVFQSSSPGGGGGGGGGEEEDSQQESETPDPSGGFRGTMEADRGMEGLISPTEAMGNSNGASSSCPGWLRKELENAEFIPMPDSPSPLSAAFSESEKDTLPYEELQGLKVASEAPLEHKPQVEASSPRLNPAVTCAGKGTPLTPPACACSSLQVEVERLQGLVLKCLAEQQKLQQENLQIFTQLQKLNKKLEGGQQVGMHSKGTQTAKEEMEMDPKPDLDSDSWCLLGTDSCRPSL
Put plainly: Inhibition of NEK9 ACT labeling site in human A-375 cells at 5 uM by KiNativ Profiling analysis relative to control. The format is cell-based.

The target in experiment [3] is Proto-oncogene tyrosine-protein kinase Src (Homo sapiens, UniProt P12931). The experiment in a line: Inhibition of SRC ACT labeling site in human A-375 cells at 0.05 uM by KiNativ Profiling analysis relative to control. In kind it is cell-based.
Experiment [4] has as its target eIF-2-alpha kinase GCN2 (Homo sapiens) (UniProt Q9P2K8). The experiment in a line: Inhibition of GCN2 domain2 Lys1 labeling site in human A-375 cells at 0.05 uM by KiNativ Profiling analysis relative to control. The format is cell-based.
Experiment [5] addresses Cyclin-dependent kinase-like 3 (Homo sapiens) (UniProt Q8IVW4). Put plainly: Inhibition of CDKL3 (unknown origin) at 1 uM by Ambit Kinomescan binding assay relative to control; values are per cent of control.
Experiment [6] has as its system Tyrosine-protein kinase ABL1 (Homo sapiens), P00519 [E255K]. Put plainly: Inhibition of ABL1 E255K mutant (unknown origin) at 10 uM by Ambit Kinomescan binding assay relative to control.
Experiment [7] has as its system Tyrosine-protein kinase ABL1 (Homo sapiens), P00519 [Q252H]. The experiment in a line: Inhibition of ABL1 Q252H mutant (unknown origin) at 10 uM by Ambit Kinomescan binding assay relative to control.
The target in experiment [8] is MAP/microtubule affinity-regulating kinase 4 (Homo sapiens) (UniProt Q96L34). The experiment in a line: Inhibition of MARK4 (unknown origin) at 10 uM by Ambit Kinomescan binding assay.
Experiment [9] concerns the target Epidermal growth factor receptor (Homo sapiens) (UniProt P00533). Put plainly: Inhibition of EGFR ACT labeling site harbouring ITDFGLAKLLGAEEK in human A-375 cells at 5 uM by KiNativ Profiling analysis relative to control. The format is cell-based.
Experiment [10] deals with T2, Mitogen-activated protein kinase kinase kinase kinase 2 (Homo sapiens) (UniProt Q12851).
T2 sequence (whole entry): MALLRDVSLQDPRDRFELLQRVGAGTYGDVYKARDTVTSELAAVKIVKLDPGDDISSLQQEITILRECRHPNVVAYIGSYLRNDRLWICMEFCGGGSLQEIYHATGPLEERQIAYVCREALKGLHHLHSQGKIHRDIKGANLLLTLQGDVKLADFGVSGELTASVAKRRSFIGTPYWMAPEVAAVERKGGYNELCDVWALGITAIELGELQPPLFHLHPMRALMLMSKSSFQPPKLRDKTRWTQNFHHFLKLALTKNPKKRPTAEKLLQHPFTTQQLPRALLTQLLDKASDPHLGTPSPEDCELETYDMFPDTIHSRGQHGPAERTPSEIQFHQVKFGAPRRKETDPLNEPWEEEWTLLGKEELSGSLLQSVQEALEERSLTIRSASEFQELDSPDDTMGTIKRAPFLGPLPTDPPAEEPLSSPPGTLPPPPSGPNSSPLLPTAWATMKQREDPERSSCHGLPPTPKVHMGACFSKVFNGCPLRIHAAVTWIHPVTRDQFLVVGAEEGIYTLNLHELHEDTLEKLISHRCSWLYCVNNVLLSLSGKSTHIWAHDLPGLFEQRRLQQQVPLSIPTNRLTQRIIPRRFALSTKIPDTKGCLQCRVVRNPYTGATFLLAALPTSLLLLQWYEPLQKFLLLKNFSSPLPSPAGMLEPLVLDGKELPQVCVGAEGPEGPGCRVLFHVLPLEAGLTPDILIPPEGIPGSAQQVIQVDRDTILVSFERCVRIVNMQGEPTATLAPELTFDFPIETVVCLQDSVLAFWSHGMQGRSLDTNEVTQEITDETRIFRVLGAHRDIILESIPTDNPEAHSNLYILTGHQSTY
The experiment in a line: Inhibition of MAP4K2 (GCK) Lys2 labeling site in human A-375 cells at 0.05 uM by KiNativ Profiling analysis relative to control. In kind it is cell-based.

Experiment [11] in a line: Inhibition of MLK1/4 K2 labeling site in human Huh-7 cells at 1 uM by KiNativ Profiling analysis relative to control. As to conditions: condition cancer.
The target of experiment [12] is Phosphatidylinositol 4-phosphate 3-kinase C2 domain-containing subunit beta (Homo sapiens) (UniProt O00750). The experiment in a line: Inhibition of PIK3C2B ATP labeling site in human Huh-7 cells at 1 uM by KiNativ Profiling analysis relative to control. In kind it is cell-based.

Sequence of Cyclin-dependent kinase-like 3 (Homo sapiens) (Q8IVW4 whole entry, looked up): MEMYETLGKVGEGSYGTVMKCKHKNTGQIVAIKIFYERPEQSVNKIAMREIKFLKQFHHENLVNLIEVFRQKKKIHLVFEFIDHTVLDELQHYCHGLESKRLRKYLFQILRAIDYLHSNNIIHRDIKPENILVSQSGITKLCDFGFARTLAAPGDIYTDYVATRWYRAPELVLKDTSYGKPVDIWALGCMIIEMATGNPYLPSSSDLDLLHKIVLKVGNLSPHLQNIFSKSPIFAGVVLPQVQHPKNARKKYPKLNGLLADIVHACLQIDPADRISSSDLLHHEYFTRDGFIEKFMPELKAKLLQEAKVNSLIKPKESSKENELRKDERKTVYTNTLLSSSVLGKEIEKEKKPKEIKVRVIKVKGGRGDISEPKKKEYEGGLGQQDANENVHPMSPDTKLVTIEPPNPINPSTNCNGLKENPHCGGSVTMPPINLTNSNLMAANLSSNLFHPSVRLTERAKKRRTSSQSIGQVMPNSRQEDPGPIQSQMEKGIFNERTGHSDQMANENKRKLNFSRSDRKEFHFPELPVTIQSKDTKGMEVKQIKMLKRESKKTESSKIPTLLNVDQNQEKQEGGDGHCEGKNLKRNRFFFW
Sequence of Phosphatidylinositol 4,5-bisphosphate 3-kinase catalytic subunit beta isoform (Homo sapiens) (P42338 whole entry, looked up, canonical isoform): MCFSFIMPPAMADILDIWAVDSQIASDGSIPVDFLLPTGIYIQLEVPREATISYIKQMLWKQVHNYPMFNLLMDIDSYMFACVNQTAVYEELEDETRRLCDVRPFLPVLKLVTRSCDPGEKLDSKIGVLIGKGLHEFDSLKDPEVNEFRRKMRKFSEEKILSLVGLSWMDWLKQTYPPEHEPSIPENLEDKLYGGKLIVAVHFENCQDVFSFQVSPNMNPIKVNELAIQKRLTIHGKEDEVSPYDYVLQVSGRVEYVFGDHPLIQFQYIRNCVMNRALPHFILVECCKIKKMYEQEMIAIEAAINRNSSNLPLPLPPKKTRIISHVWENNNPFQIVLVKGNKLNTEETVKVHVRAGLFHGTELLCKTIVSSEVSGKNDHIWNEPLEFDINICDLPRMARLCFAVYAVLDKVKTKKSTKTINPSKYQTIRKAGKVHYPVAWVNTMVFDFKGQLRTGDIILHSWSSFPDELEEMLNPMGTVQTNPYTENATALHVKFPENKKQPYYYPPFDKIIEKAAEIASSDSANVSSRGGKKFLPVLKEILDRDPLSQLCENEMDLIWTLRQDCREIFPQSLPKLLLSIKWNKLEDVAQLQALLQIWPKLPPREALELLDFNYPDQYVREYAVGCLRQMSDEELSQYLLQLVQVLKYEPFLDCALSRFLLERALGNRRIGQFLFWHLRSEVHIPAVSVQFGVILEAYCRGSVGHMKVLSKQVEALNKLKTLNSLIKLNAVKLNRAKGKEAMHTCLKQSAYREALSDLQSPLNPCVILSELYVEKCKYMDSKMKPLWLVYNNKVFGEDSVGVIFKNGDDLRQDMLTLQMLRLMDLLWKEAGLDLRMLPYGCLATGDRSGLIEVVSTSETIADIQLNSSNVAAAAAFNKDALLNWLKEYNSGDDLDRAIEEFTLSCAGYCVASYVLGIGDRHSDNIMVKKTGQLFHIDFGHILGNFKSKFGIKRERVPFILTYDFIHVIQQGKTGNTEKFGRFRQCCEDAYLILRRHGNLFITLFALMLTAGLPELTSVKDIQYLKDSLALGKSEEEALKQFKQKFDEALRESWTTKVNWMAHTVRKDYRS
Sequence of eIF-2-alpha kinase GCN2 (Homo sapiens) (Q9P2K8 whole entry, the tested form may be a part): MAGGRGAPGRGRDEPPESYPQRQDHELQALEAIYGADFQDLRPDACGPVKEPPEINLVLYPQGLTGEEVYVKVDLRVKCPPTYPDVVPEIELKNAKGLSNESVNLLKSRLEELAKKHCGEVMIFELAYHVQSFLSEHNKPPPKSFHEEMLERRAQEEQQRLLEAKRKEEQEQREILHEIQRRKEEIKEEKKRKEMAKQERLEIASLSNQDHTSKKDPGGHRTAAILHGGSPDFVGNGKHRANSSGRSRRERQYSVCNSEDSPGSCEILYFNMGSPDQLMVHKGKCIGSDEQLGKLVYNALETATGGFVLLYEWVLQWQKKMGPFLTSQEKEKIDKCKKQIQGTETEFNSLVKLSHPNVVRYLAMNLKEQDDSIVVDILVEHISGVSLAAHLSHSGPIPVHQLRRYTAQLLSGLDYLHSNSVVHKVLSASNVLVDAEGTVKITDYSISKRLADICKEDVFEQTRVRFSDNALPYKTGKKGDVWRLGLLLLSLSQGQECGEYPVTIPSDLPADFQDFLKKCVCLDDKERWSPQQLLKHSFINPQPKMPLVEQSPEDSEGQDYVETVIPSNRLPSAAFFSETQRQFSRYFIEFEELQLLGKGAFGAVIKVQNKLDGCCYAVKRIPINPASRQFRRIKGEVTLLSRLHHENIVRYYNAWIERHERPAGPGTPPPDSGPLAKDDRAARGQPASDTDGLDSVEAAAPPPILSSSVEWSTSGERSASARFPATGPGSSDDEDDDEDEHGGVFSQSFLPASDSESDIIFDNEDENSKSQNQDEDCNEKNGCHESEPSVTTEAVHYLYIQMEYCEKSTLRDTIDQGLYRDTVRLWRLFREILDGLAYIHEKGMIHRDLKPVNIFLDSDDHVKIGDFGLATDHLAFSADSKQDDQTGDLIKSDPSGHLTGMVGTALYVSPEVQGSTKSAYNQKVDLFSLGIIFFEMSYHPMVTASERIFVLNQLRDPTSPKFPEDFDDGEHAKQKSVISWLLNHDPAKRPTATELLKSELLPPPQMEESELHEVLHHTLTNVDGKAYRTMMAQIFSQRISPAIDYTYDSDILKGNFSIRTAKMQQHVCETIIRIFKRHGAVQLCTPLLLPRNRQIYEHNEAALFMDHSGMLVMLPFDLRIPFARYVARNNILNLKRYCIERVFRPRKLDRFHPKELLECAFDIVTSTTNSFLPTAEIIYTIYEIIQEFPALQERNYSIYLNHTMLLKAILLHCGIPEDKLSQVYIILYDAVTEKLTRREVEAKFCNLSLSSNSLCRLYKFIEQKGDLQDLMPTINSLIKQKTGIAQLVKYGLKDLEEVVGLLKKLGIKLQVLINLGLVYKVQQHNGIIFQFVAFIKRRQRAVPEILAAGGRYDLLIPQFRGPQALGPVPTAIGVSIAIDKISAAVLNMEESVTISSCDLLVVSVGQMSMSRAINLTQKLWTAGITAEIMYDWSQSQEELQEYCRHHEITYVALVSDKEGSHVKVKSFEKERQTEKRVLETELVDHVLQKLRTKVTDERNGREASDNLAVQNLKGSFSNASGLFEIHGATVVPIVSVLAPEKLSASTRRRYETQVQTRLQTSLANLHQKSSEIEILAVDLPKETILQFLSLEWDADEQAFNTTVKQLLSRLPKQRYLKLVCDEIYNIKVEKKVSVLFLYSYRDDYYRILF
Sequence of Epidermal growth factor receptor (Homo sapiens) (P00533 whole entry): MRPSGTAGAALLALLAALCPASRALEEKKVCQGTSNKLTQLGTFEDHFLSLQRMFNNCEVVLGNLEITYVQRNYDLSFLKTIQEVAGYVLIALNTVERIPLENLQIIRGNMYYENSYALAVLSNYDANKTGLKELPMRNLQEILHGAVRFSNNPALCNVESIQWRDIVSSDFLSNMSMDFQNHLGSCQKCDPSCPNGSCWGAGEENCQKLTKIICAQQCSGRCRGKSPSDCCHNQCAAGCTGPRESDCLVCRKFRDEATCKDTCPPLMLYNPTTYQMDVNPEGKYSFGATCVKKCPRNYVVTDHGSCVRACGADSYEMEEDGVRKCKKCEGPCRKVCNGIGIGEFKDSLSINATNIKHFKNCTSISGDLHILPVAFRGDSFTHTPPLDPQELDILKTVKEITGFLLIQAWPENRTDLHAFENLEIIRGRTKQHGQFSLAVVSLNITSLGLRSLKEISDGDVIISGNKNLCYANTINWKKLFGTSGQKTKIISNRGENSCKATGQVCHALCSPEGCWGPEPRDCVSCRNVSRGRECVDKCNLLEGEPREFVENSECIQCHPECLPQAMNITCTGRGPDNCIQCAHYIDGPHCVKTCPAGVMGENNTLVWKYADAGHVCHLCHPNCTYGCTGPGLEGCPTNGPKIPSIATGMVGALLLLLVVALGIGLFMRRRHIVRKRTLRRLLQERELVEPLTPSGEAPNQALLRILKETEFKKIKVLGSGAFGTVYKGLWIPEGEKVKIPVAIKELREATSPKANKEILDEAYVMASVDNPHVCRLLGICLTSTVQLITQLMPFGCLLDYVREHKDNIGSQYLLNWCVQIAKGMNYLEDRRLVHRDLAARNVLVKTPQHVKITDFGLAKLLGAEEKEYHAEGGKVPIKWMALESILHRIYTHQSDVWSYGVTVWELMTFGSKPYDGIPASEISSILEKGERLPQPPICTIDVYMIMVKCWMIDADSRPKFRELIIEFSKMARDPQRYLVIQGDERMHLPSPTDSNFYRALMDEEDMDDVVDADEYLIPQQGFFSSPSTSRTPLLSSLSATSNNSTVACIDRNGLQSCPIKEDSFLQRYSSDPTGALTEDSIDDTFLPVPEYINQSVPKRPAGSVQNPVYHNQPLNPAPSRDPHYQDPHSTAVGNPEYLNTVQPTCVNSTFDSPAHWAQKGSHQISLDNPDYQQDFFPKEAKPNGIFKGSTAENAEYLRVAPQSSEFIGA
Sequence of Proto-oncogene tyrosine-protein kinase Src (P12931 2-536 limits assumed): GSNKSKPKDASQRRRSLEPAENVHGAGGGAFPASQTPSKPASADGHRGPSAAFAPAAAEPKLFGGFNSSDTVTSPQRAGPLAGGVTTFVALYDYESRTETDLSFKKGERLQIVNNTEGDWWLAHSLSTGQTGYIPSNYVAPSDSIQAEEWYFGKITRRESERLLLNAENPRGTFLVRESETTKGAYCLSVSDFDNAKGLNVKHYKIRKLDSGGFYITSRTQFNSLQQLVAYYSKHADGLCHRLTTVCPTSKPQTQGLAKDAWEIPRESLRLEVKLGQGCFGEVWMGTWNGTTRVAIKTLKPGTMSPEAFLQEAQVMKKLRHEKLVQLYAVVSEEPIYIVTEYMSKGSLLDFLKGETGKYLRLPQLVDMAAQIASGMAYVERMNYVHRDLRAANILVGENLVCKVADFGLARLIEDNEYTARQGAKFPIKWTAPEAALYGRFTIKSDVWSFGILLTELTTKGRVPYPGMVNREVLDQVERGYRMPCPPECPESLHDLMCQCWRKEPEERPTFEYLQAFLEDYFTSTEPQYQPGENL

`CNc1cc(Oc2cc(C(=O)Nc3cc(N4CCN(C)CC4)cc(C(F)(F)F)c3)ccc2C)ncn1`: in [1], the inhibition is 14%.

Turning to `CCN1CCN(Cc2ccc(NC(=O)c3ccc(C)c(/C=C/c4cnc5[nH]ccc5c4OC)c3)cc2C(F)(F)F)CC1`, the inhibition in experiment [2] turned out to be 14.9%; in [3], 38.9%; in experiment [4], 4.6%. Moreover, in [5], the residual activity came out at 50%.

With `CCN1CCN(Cc2ccc(NC(=O)c3ccc(C)c(Oc4ccnc5[nH]ccc45)c3)cc2C(F)(F)F)CC1`, the inhibition in [6] was 1.2%; in [7], 0.4%; in experiment [9], 5.4%; in experiment [10], 95.1%; in [12] it was -9.4%. Also, the inhibition result in experiment [8] is “inactive”. The inhibition at 1 µM in experiment [11] is 1.5%.
